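Growth conditions: 96-well plates. Treatment: test compound, 48 hours, 5 concentrations. Analysis: linear interpolation between bracketing concentrations; unreached endpoints set to highest concentration. GI50 is the concentration that inhibits growth by half. TGI: concentration producing complete growth inhibition.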
What was measured:
Experiment in all cases: inhibition of tumour cell growth, NCI panel, 48 h
[1] = tested on: SK-OV-3 ovarian
[2] = tested on: HL-60(TB) leukemia
[3] = tested on: HS 578T breast
[4] = tested on: HOP-92 NSCLC
[5] = tested on: SF-268 CNS
[6] = tested on: RXF 393 renal
[7] = tested on: SF-539 CNS
[8] = tested on: OVCAR-5 ovarian
[9] = tested on: SF-295 CNS
[10] = tested on: RPMI-8226 leukemia
[11] = tested on: HCT-116 colon
[12] = tested on: SNB-19 CNS
[13] = tested on: DU-145 prostate
[14] = tested on: HCC-2998 colon
[15] = tested on: NCI-H460 lung
[16] = tested on: MDA-MB-435
[17] = tested on: LOX IMVI melanoma
[18] = tested on: A549 NSCLC
[19] = tested on: U251 CNS
[20] = tested on: UACC-257 melanoma
[21] = tested on: OVCAR-4 ovarian
[22] = tested on: SK-MEL-28 melanoma
[23] = tested on: ACHN renal
[24] = tested on: MCF7 breast
[25] = tested on: SN12C renal
[26] = tested on: COLO 205 colon
[27] = tested on: TK-10 renal
[28] = tested on: SW-620 colon
[29] = tested on: HCT-15 colon
[30] = tested on: KM12 colon
[31] = tested on: SR leukemia
[32] = tested on: EKVX NSCLC
[33] = tested on: SK-MEL-5 melanoma
[34] = tested on: MALME-3M melanoma
[35] = tested on: HT29 colon
[36] = tested on: 786-0 renal
[37] = tested on: UO-31 renal
[38] = tested on: HOP-62 NSCLC
[39] = tested on: K-562 leukemia
[40] = tested on: MOLT-4 leukemia
[41] = tested on: SNB-75 CNS
[42] = tested on: CCRF-CEM leukemia
[43] = tested on: MDA-MB-231 breast
[44] = tested on: NCI/ADR-RES ovarian
[45] = tested on: M14 melanoma
[46] = tested on: NCI-H23 lung
[47] = tested on: OVCAR-8 ovarian
[48] = tested on: A498 renal
[49] = tested on: NCI-H226 lung
[50] = tested on: OVCAR-3 ovarian
[51] = tested on: UACC-62 melanoma
[52] = tested on: BT-549 breast
[53] = tested on: IGROV1 ovarian
[54] = tested on: SK-MEL-2 melanoma
[55] = tested on: CAKI-1 renal
[56] = tested on: NCI-H522 lung
[57] = tested on: T-47D breast
[58] = tested on: PC-3 prostate

Compound: CCCCCCCc1n(Cc2ccc3ccccc3c2)c2ccccc2[n+]1Cc1ccc2ccccc2c1
- GI50 [1]: 0.87 µM
- TGI [1]: 2.28 µM
- GI50 [2]: 0.186 µM
- TGI [2]: 0.569 µM
- GI50 [3]: 1.2 µM
- TGI [3]: 3.67 µM
- GI50 [4]: 0.163 µM
- TGI [4]: 0.67 µM
- GI50 [5]: 0.345 µM
- TGI [5]: 1.49 µM

Compound: CC(=O)NC(NCCN)(c1ccccc1)c1ccccc1
- TGI [6]: > 100 µM
- TGI [1]: > 100 µM
- TGI [7]: > 100 µM
- TGI [8]: > 100 µM
- TGI [9]: > 100 µM
- TGI [10]: > 100 µM
- TGI [11]: > 100 µM
- TGI [2]: > 100 µM
- TGI [12]: > 100 µM
- TGI [13]: > 100 µM
- TGI [14]: > 100 µM
- TGI [15]: > 100 µM
- TGI [16]: > 100 µM
- TGI [17]: > 100 µM
- TGI [18]: > 100 µM
- TGI [19]: > 100 µM
- TGI [20]: > 100 µM
- TGI [21]: > 100 µM
- TGI [22]: > 100 µM
- TGI [3]: > 100 µM
- TGI [23]: > 100 µM
- TGI [24]: > 100 µM
- TGI [25]: > 100 µM
- TGI [26]: > 100 µM
- TGI [4]: > 100 µM
- TGI [5]: > 100 µM
- TGI [27]: > 100 µM
- TGI [28]: > 100 µM
- TGI [29]: > 100 µM
- TGI [30]: > 100 µM
- TGI [31]: > 100 µM
- TGI [32]: > 100 µM
- TGI [33]: > 100 µM
- TGI [34]: > 100 µM
- TGI [35]: > 100 µM
- TGI [36]: > 100 µM
- TGI [37]: > 100 µM
- TGI [38]: > 100 µM
- TGI [39]: > 100 µM
- TGI [40]: > 100 µM
- TGI [41]: > 100 µM
- TGI [42]: > 100 µM
- TGI [43]: > 100 µM
- TGI [44]: > 100 µM
- TGI [45]: > 100 µM
- TGI [46]: > 100 µM
- TGI [47]: > 100 µM
- TGI [48]: > 100 µM
- TGI [49]: > 100 µM

Compound: CCOC(=O)/C(=N/Nc1ccccc1)N1C(=S)C=C(C)NN(C)C1=S
- TGI [6]: 20.1 µM
- TGI [1]: > 100 µM
- TGI [7]: > 100 µM
- TGI [8]: > 100 µM
- TGI [9]: 84.9 µM
- TGI [50]: > 100 µM
- TGI [51]: > 100 µM
- TGI [52]: > 100 µM
- TGI [10]: > 100 µM
- TGI [11]: > 100 µM
- TGI [53]: > 100 µM
- TGI [2]: > 100 µM
- TGI [12]: > 100 µM
- TGI [13]: > 100 µM
- TGI [14]: > 100 µM
- TGI [15]: > 100 µM
- TGI [16]: > 100 µM
- TGI [18]: > 100 µM
- TGI [19]: 50.9 µM
- TGI [20]: > 100 µM
- TGI [21]: > 100 µM
- TGI [22]: > 100 µM
- TGI [3]: > 100 µM
- TGI [23]: > 100 µM
- TGI [24]: > 100 µM
- TGI [25]: > 100 µM
- TGI [26]: > 100 µM
- TGI [4]: > 100 µM
- TGI [5]: > 100 µM
- TGI [27]: > 100 µM
- TGI [28]: > 100 µM
- TGI [29]: > 100 µM
- TGI [30]: > 100 µM
- TGI [31]: > 100 µM
- TGI [32]: > 100 µM
- TGI [54]: > 100 µM
- TGI [33]: > 100 µM
- TGI [35]: > 100 µM
- TGI [55]: > 100 µM
- TGI [37]: > 100 µM
- TGI [39]: > 100 µM
- TGI [40]: > 100 µM
- TGI [42]: > 100 µM
- TGI [43]: > 100 µM
- TGI [44]: > 100 µM
- TGI [45]: > 100 µM
- TGI [56]: > 100 µM
- TGI [46]: > 100 µM
- TGI [47]: > 100 µM
- TGI [57]: > 100 µM

Compound: O=C1c2ccccc2-c2c1c1ccccc1c(=O)n2CCCNCCn1c2c(c3ccccc3c1=O)C(=O)c1ccccc1-2
- GI50 [6]: 2.29 µM
- TGI [6]: 13.9 µM
- GI50 [1]: 19.2 µM
- TGI [1]: > 100 µM
- GI50 [7]: 14.6 µM
- TGI [7]: 27.8 µM
- GI50 [8]: 14.9 µM
- TGI [8]: 28.1 µM
- GI50 [9]: 7.77 µM
- TGI [9]: 27.5 µM
- GI50 [50]: 8.82 µM
- TGI [50]: 21.1 µM
- GI50 [51]: 5.04 µM
- TGI [51]: 19.3 µM
- GI50 [52]: 10.8 µM
- TGI [52]: 28.6 µM
- GI50 [11]: 1.05 µM
- TGI [11]: 3.13 µM
- GI50 [58]: 2.43 µM
- TGI [58]: 10.5 µM
- GI50 [53]: 2.63 µM
- TGI [53]: 32.2 µM
- GI50 [2]: 34.6 µM
- TGI [2]: 96.8 µM
- GI50 [12]: 2.48 µM
- TGI [12]: 11.6 µM
- GI50 [13]: 1.89 µM
- TGI [13]: 12 µM
- GI50 [15]: 3.02 µM
- TGI [15]: 17.6 µM
- GI50 [16]: 2.24 µM
- TGI [16]: 6.11 µM
- GI50 [17]: 0.0855 µM
- TGI [17]: 3.16 µM
- GI50 [18]: 13.5 µM
- TGI [18]: 26.3 µM
- GI50 [19]: 1.61 µM
- TGI [19]: 3.29 µM
- GI50 [20]: 17.9 µM
- TGI [20]: 35 µM
- GI50 [21]: 11.5 µM
- TGI [21]: 24.9 µM
- GI50 [22]: 16 µM
- TGI [22]: 38 µM
- GI50 [3]: 16.5 µM
- TGI [3]: 64.6 µM
- GI50 [23]: 12.3 µM
- TGI [23]: 24.8 µM
- GI50 [24]: 3.47 µM
- TGI [24]: 13.8 µM
- GI50 [25]: 10.9 µM
- TGI [25]: 22.9 µM
- GI50 [26]: 36.2 µM
- TGI [26]: > 100 µM
- GI50 [4]: 14.1 µM
- TGI [4]: 28.1 µM
- GI50 [5]: 7.6 µM
- TGI [5]: 26.5 µM
- GI50 [27]: 3.8 µM
- TGI [27]: 15.8 µM
- GI50 [28]: 2.23 µM
- TGI [28]: > 100 µM
- GI50 [29]: 2.74 µM
- TGI [29]: 13 µM
- GI50 [30]: 2.32 µM
- TGI [30]: > 100 µM
- GI50 [32]: 12.5 µM
- TGI [32]: 27.2 µM
- GI50 [54]: 28.2 µM
- TGI [54]: 96.9 µM
- GI50 [34]: 22.1 µM
- TGI [34]: 40.3 µM
- GI50 [35]: 2.42 µM
- TGI [35]: 10 µM
- GI50 [36]: 1.98 µM
- TGI [36]: 9.64 µM
- GI50 [55]: 14.3 µM
- TGI [55]: 28.7 µM
- TGI [37]: 17.3 µM
- GI50 [38]: 9.69 µM
- TGI [38]: 25.3 µM
- GI50 [39]: 19.2 µM
- TGI [39]: 42.3 µM
- GI50 [41]: 11.8 µM
- TGI [41]: 32.2 µM
- GI50 [43]: 2 µM
- TGI [43]: 9.25 µM
- GI50 [44]: 11.3 µM
- TGI [44]: 25.9 µM
- GI50 [45]: 2.8 µM
- TGI [45]: 10.9 µM
- GI50 [56]: 14.6 µM
- TGI [56]: 48.1 µM
- GI50 [46]: 2.25 µM
- TGI [46]: 11.6 µM
- GI50 [47]: 2.73 µM
- TGI [47]: 16.6 µM
- GI50 [48]: 12.7 µM
- TGI [48]: 25.3 µM
- GI50 [57]: 17.8 µM
- TGI [57]: 34.6 µM
- GI50 [49]: 4.59 µM
- TGI [49]: 20.7 µM

Reference: PubChem BioAssay (NCI)
